PMC5930436, “Overexpressed HDAC8 in cervical cancer cells shows functional redundancy of tubulin deacetylation with HDAC6” (Cell Communication and Signaling : CCS, 2018)
Entries after “also recorded” stand apart in the source; their conditions may differ. Blank lines part the entries; values can stand above or below the compound they belong to.

Assays:
HeLa cells [1] = experiment: Cell morphology analysis, HeLa; type: cell-based, human; conditions: 20 μM
Method: (§1) HeLa and HEK 293 T cells are cultured in 6 well plates till attaining 70% confluency. Cells are starved for 12 h without serum and treated with PCI-34051 (20 μM) and Paclitaxel (20 μM) along with untreated control for 24 & 48 h. Examined difference in the morphology was captured by Olympus CKX41, ProgRes CT3 phase contrast microscope at 10X focussed lens.

HDAC8 = conditions: cited from earlier work
Description: The cytoplasmic localization of HDAC8 was further confirmed by immunoblot analysis using total, cytoplasmic and nuclear protein fractions of HEK 293 T and HeLa (Fig. 1d). […] With forskolin treatment, there was significant inc ... || In silico and spectroscopy based results have confirmed the interaction of HDAC8 with alpha tubulin & acetylated alpha tubulin peptide. To further validate the functional interaction we carried out IP and co-IP experiments with HDAC8 and acetylated alpha tubulin (ac-tubulin) antibodies. […] Densitometry results for the fold expression ...

[2] = test system: acetylated alpha tubulin, HEK 293 T; experiment: Immunoblot of acetylated alpha tubulin in HEK 293 T cells; type: cell-based, human; conditions: 24 h; for acetylated alpha tubulin levels: HEK 293 T
Method: (§2) Human embryonic kidney cells, HEK293T, human cervical carcinoma cells, HeLa, human breast cancer cells, MDA-MB 231, human lung adenocarcinoma cellsA549, chronic myeloid leukemia cells, K562, and human colon cancer cells, HCT11, were obtained from National Centre for Cell Sciences (NCCS), Pune, India. Cell line authentication by STR analysis was performed for 10 genetic loci for all the cell lines by Life code, Genomic technologies Pvt. Ltd., and tested for mycoplasma negative by performing PCR (mycoplasma specific genes) using EZdetect PCR kit for mycoplasma detection (CCK009). All the cells were cultured in high glucose DMEM medium containing 10% foetal bovine serum and 1% Penicillin/streptomycin (Himedia). Cells were seeded in 60 mm dishes and upon attaining 80–90% confluency, treatment was given with PCI-34051(Cayman Chemicals) (10 μM/20 μM) and tubastatin (5 μM) for 24 h or both in combination (PCI-34051 and Tubastatin) and Forskolin (Sigma) (10 μM) for 45 min independently along with untreated control as described earlier.
(§3) Total, cytoplasmic and nuclear fractions of HeLa or HEK 293 T cells treated with or without PCI-34051 (20 μM), [12] tubastatin (5 μM) and/or forskolin (10 μM) were prepared as described previously. Total protein samples of HEK 293 T, HeLa, MDAMB 231, K562, A549 and HCT11 cells / immunoprecipitated HDAC8 and HDAC6 samples from both HeLa and HEK 293 T lysates / HDAC8 siRNA transfected HEK 293 T and HeLa lysates were also prepared. The proteins were separated on 10 or 12% SDS-PAGE, transferred on to nitrocellulose membrane and probed with primary antibodies of HDAC8, Beta actin, Alpha tubulin, anti-acetylated alpha tubulin, HDAC6 and GAPDH. The bands were visualized using chemiluminiscence after probing with HRP-conjugated secondary antibody.
(§4) Source for siRNA oligonucleotides were considered from with sequence, HDAC8 Sense: […] and Anti-sense: […]. The oligonucleotides were converted into siRNA by following standard protocol as described earlier. HeLa and HEK 293 T cells were transfected with HDAC8 siRNA (10–15 μg/100 mm dish) using lipofectamine 2000 (Invitrogen), and considering untransfected as control. Cells were harvested after 72 h of post-transfection and processed for total RNA and protein isolation.

HeLa cells [3] = experiment: Cell cycle analysis, HeLa; type: cell-based, human; conditions: PCI-34051 (20 μM), 48 h, vs untreated control
Method: (§5) Cells (HeLa & HEK 293 T) were grown to attain 70% confluency and were serum starved for 12 h, followed by treatments with PCI-34051 (20 μM) and Paclitaxel (20 μM) respectively for 48 h and processed for cell cycle analysis.

HeLa cells [4] = experiment: Cell migration (wound) assay in HeLa cells; type: cell-based, human
Method: HeLa cells are grown in 6 well plates in duplicates till it attains 90% confluency and starved with serum free media for overnight. Using a sterile 200 μl tip wound is created by drawing straight lines at three different points in each well. Detached cells are aspirated and washed three times with 1XPBS. Cells are treated with PCI-34051 (10 μM & 20 μM) and Paclitaxel (10 μM & 20 μM) dissolved in 2% FBS respectively along with control (untreated). Migrated cells into the wound were examined by capturing images using Olympus CKX41, ProgRes CT3 phase contrast microscope after 24 and 48 h.

HEK 293 T cells [5] = experiment: Cell morphology analysis, HEK 293 T; type: cell-based, human; conditions: 20 μM, 24 & 48 h, vs control
Method: as §1

[6] = test system: acetylated alpha tubulin, HeLa; experiment: Immunoblot of acetylated alpha tubulin in HeLa cells; type: cell-based, human; conditions: 24 h
Method: as §2, §3, §4

HEK 293 T cells [7] = experiment: Cell cycle analysis, HEK 293 T; type: cell-based, human; conditions: PCI-34051 (20 μM), 48 h
Method: as §5

GST-HDAC8 [8] = experiment: Circular dichroism binding study with GST-HDAC8; design: species or system human; conditions: GST-HDAC8 (2 μM) + peptide (500 nM), 25 °C, 190-300 nm
Method: (§6) hHDAC8 (Full length) cDNA was amplified by using a polymerase chain reaction (PCR) with forward primer: 5′– […]-3′ and a reverse primer: 5’–[…]–3′. The PCR product was then sub cloned into pGEX- 6P1 plasmid. Clone was then overexpressed in Escherichia coli strain BL21 (DE3) with standardized expression conditions of 0.1 mM IPTG at 28 °C for 4 h. Induced culture pellet was lysed in 1XPBS buffer (140 mM NaCl, 2.7 mM KCl, 10 mM Na2HPO4, 1.8 mM KH2PO4) along with 1X Protease inhibitor cocktail, 1 mM PMSF, and 0.1 mM DTT. To the lysate 1% Triton X 100 is added and centrifuged for 20 min at a speed of 4000 rpm at 4 °C. Clear supernatant was used for binding with GST binding buffer (25 mM Tris pH 7.5, 300 mM NaCl, 1 mM EDTA, 1X Protease inhibitor cocktail) for 3 h on a rota spin at 4 °C. Binding was followed by collection of unbound and washes with 1X PBS (5 washes). Elutions were collected in 10 mM reduced glutathione, dissolved in 50 mM Tris pH 8.0. The purity of the protein was then analysed on SDS PAGE, followed by Western blot. Activity was then determined by HDAC activity assay.
Binding studies of GST-HDAC8 protein (2 μM) and acetylated (Lys40) or unacetylated alpha tubulin peptides (500 nM) were carried out on Jasco J-1500 (model L-1500-450) CD spectroscopy. Changes incurred in the secondary structure of GST-HDAC8 upon binding of the peptides were recorded as the mean ellipticity, with given set of parameters: start wavelength of 300 nm, end wavelength of 190 nm, scan speed of 100 nm/min, band width of 2 nm, cuvette cell size of 2 mm and at a temperature of 25 °C with two scan accumulations.

GST-HDAC8 [9] = experiment: HPLC-based in vitro deacetylation assay with GST-HDAC8; type: biochemical, human; conditions: GST-HDAC8 (2 μM; 30 μg) + peptide (500 nM), 15 min, 37 °C, 50 mM Tris pH 7.5, 1 mM DTT, HPLC C18
Method: as §6
In vitro deacetylation assay of custom synthesized acetylated (Lys40) alpha tubulin was carried out on HPLC (Schimadzu) with C18 (4.6 × 250 mm) column as described earlier. […]

Compound: COc1ccc(Cn2ccc3ccc(C(=O)NO)cc32)cc1 [PCI-34051]
cell morphology effect compared with positive control (HeLa cells [1]; HeLa (shrinkage) and HEK 293 T (clump formation)): quite comparable to that of paclitaxel treated condition
cell morphology (cell size) (HeLa cells [1]; HeLa, 24 & 48 h, vs control): reduced (shrinking) cell size; also recorded: decreased cell size (shrinking)
HDAC8 selectivity (HDAC8): HDAC8 selective inhibitor
acetylated alpha tubulin levels ([2]; PCI-34051 (20 μM)): no significant increase
mitotic phase of cell cycle (HeLa cells [3]): significant (p < 0.05) reduction in mitotic phase
sub G0/G1 peak (HeLa cells [3]): increased sub G0/G1 peak
migration efficiency (HeLa cells [4]; PCI-34051 (10 μM & 20 μM), upto 48 h): significantly decreased
migration efficiency (rank order) (HeLa cells [4]; PCI-34051 (10 μM) or Paclitaxel (10 μM), 24 and 48 h): Control> > Paclitaxel>PCI-34051
cell size during migration assay (HeLa cells [4]; PCI-34051, upto 48 h): notable decrease in cell size
cell morphology (aggregation / clump formation) (HEK 293 T cells [5]): clump formation; also recorded: cell aggregation
acetylated alpha tubulin levels, compared to tubastatin treated condition ([6]; PCI-34051 (20 μM) vs tubastatin): Increased ac-alpha tubulin levels
acetylated alpha tubulin levels ([6]; PCI-34051 (20 μM)): ac-alpha tubulin levels increase; also recorded: increased acetylated alpha tubulin levels; also recorded: increased the acetylation of alpha tubulin in HeLa
mitotic phase of cell cycle (HEK 293 T cells [7]): did not show any mitotic phase reduction; also recorded: no major significant change in the mitotic phase
sub G0/G1 phase (HEK 293 T cells [7]): significant increase in the sub G0/G1 phase

change in secondary structure of GST-HDAC8 (CD) (GST-HDAC8 [8]; listed as unacetylated form): without any notable differences
change in secondary structure of GST-HDAC8 (CD) (GST-HDAC8 [8]; listed as unacetylated tubulin): not observed
Compound: DGQMPSDKTIGGGD [Unac-alpha tubulin peptide, Custom synthesized, Unacetylated Alpha tubulin peptide …]

Compound: CN1CCc2c(c3ccccc3n2Cc2ccc(C(=O)NO)cc2)C1 [Tubastatin]
acetylated alpha tubulin levels, compared to PCI-34051 (20 μM) treated condition ([2]; HEK 293T, tubastatin (5 μM) vs PCI-34051 (20 μM)): increases ac-alpha tubulin levels
acetylated alpha tubulin levels ([2]; tubastatin (5 μM), HDAC6 inhibition): increase in ac-alpha tubulin levels

Compound: DGQMPSDKTIGGGD [ac-alpha tubulin peptide, Custom synthesized peptides of alpha tubulin 33–46 amino acids, Acetylated alpha tubulin peptide, at Lys40 …]
change in secondary structure of GST-HDAC8 (CD) (GST-HDAC8 [8]): significant change in the secondary structure of GST-HDAC8
change in secondary structure of GST-HDAC8 (CD) (GST-HDAC8 [8]; listed as acetylated alpha tubulin): change in the secondary structure of GST-HDAC8; also recorded: significant change in the secondary structure
in vitro deacetylation by GST-HDAC8 (shift to retention time of unacetylated peptide) (GST-HDAC8 [9]): clearly demonstrates the in vitro deacetylation of ac-alpha tubulin by GST-HDAC8
in vitro deacetylation by GST-HDAC8 (shift to retention time of unacetylated peptide) (GST-HDAC8 [9]; listed as acetylated alpha tubulin (Lys40) peptide): significant peak shift in the retention time corresponding to unacetylated peptide
